US20250034161A1, “SPIROCYCLIC COMPOUND AS KRAS-G12C INHIBITOR” (Shanghai Euregen Biopharma Co., Ltd., priority 2020, published 2025)

Key:
[1] = Brain tissue distribution test; type: in vivo; conditions: SD rats, PO 20 mg/kg
Method: 5 g of methyl cellulose was weighed and dissolved in 1000 mL of purified water to obtain 0.5% methyl cellulose. A required amount of the test compound was weighed and dissolved in 0.5% methylcellulose solution to obtain a suspension of 2 mg/mL.
Administration: SD rats were orally administered (PO) after overnight fasting. Feeding 4 hours after administration.
Sample Collection: 0.5 mL of blood was collected at each time point via the jugular vein. Samples were placed into tubes containing ethylenediamine tetraacetic acid dipotassium salt (K2EDTA) and kept on ice before centrifugation. Within 1 hour after blood collection, blood samples were centrifuged at 2-8° C. and 6800 g for 6 minutes and stored at −80° C. After the rats were euthanized by carbon dioxide inhalation, the brains of the rats were collected, quickly frozen on dry ice, and stored at −80° C. before bioanalysis. The time points for blood collection were 0.5 and 2 hours after oral administration.

CYP 2C19 = CYP 2C19 (Homo sapiens, UniProt P33261); assay: CYP inhibition test, human liver microsomes, CYP2C19
Method: (§1) • 1. Test purpose: to evaluate the inhibitory ability of some of the example compounds of the present invention against CYP1A2, 2B6, 2C8, 2C9, 2C19, 2D6 and 3A4 via human liver microsomes. • 2. […] Test method:
(§2) • 1. K/Mg buffer: the components were 0.1 mol/L potassium phosphate and 5 mmol/L magnesium chloride with pH 7.4±0.1, preheated. • 2. Solution of the test compound: the test compound was dissolved in dimethyl sulfoxide to prepare a stock solution of 10 mmol/L. 8 μL of 10 mmol/L stock solution was transferred to a 96-well plate containing 12 μL of acetonitrile as the highest concentration point, at 3-fold dilution, for 8 concentrations. • 3. NADPH solution: 66.7 mg of NADPH was dissolved in 10 mL of 0.1 mol/L K/Mg buffer to obtain 8 mmol/L NADPH solution with pH 7.4. • 4. Human liver microsomal stock solution: human liver microsomes were dissolved in 0.1 mol/L K/Mg buffer to obtain 20 mg/mL stock solution. • 5. Human liver microsomal working solution: 10 μL of 20 mg/mL human liver microsomal stock solution was taken and added into 990 μL of 0.1 mol/L K/Mg buffer to prepare 0.2 mg/mL human liver microsomal solution. • 6. […]

CYP 2C9 = CYP 2C9 (Homo sapiens, UniProt P11712); assay: CYP inhibition test, human liver microsomes, CYP2C9
Method: as §1, §2

CYP 2D6 = CYP 2D6 (Homo sapiens, UniProt P10635); assay: CYP inhibition test, human liver microsomes, CYP2D6
Method: as §1
(§3) • 1. K/Mg buffer: the components were 0.1 mol/L potassium phosphate and 5 mmol/L magnesium chloride with pH 7.4±0.1, preheated. • 2. Solution of the test compound: the test compound was dissolved in dimethyl sulfoxide to prepare a stock solution of 10 mmol/L. 8 μL of 10 mmol/L stock solution was transferred to a 96-well plate containing 12 μL of acetonitrile as the highest concentration point, at 3-fold dilution, for 8 concentrations. • 3. […] Human liver microsomal stock solution: human liver microsomes were dissolved in 0.1 mol/L K/Mg buffer to obtain 20 mg/mL stock solution. • 5. Human liver microsomal working solution: 10 μL of 20 mg/mL human liver microsomal stock solution was taken and added into 990 μL of 0.1 mol/L K/Mg buffer to prepare 0.2 mg/mL human liver microsomal solution. • 6.
600 μL of 0.2 mg/mL human liver microsomal solution and 3 μL of stepwise diluted test compound solution were added to the 96-well plate. 30 μL of the above solution was added on the 96-well plate followed by the addition of 15 μL of the corresponding substrate solution. […]

CYP 3A4 = CYP 3A4 (Homo sapiens, UniProt P08684); assay: CYP inhibition test, human liver microsomes, CYP3A4; conditions: IC50(μM)
Method: as §1, §3
600 μL of 0.2 mg/mL human liver microsomal solution and 3 μL of stepwise diluted test compound solution were added to the 96-well plate. 30 μL of the above solution was added on the 96-well plate followed by the addition of 15 μL of the corresponding substrate solution. The 96-well plate and the NADPH solution were pre-incubated at 37° C. for 5 minutes, and 15 μL of NADPH solution was added to the 96-well plate to start the reaction. The assay plate was incubated at 37° C. for 5 minutes for 3A4, 10 minutes for 1A2, 2B6 and 2C9, 20 minutes for 2C8 and 2D6, and 45 minutes for 2C19. Then the reaction was terminated by 180 μL of acetonitrile containing internal standard substance. After quenching, the plate was shook for 10 minutes (600 rpm/min) and then centrifuged at 6000 rpm for 15 minutes. 80 μL of supernatant was taken from each well and transferred to a 96-well sample plate containing 120 μL of ultrapure water for LC-MS/MS analysis.

[2] = CYP 3 A4-M, substrate midazolam
[3] = CYP 3 A4-T, substrate testosterone

CYP 3A4, sequence (P08684 whole entry): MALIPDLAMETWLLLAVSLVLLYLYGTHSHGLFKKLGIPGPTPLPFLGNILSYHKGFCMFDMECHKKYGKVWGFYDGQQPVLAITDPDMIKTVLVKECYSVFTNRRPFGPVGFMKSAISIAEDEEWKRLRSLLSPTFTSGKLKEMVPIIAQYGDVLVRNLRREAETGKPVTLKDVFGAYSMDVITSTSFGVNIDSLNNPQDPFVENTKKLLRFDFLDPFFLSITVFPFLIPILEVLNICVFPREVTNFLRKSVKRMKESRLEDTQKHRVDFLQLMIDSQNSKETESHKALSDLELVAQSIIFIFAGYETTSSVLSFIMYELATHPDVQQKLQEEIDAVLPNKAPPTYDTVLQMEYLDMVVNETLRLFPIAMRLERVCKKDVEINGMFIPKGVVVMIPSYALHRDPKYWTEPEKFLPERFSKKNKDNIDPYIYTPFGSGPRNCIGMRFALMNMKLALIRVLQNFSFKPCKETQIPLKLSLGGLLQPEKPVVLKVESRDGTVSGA
CYP 2D6, sequence (P10635 whole entry): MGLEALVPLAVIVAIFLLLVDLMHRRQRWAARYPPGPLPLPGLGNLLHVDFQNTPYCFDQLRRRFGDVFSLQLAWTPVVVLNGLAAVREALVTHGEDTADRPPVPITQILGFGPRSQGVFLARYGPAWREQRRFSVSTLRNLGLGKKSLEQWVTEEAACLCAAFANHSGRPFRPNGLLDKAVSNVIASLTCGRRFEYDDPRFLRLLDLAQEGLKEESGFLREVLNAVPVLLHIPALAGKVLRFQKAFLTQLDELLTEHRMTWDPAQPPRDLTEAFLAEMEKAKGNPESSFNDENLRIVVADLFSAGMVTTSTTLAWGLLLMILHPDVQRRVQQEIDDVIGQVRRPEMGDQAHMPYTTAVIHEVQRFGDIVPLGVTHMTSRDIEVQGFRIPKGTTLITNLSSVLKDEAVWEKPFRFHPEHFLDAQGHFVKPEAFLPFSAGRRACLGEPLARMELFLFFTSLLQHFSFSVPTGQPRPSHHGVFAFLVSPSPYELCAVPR
CYP 2C19, sequence (P33261 whole entry): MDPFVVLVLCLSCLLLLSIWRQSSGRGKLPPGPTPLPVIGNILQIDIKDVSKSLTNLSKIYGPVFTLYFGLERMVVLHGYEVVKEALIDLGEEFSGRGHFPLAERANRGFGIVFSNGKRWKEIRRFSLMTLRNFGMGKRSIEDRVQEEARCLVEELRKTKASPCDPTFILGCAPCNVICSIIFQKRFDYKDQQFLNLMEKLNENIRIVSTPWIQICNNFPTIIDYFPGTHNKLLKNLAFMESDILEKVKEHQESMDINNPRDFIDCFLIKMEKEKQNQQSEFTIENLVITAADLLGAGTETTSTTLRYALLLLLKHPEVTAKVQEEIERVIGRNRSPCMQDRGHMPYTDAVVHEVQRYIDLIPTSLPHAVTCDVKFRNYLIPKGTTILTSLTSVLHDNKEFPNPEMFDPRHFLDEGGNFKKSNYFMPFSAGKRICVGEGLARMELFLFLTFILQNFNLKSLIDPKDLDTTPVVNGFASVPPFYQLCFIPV
CYP 2C9, sequence (P11712 whole entry): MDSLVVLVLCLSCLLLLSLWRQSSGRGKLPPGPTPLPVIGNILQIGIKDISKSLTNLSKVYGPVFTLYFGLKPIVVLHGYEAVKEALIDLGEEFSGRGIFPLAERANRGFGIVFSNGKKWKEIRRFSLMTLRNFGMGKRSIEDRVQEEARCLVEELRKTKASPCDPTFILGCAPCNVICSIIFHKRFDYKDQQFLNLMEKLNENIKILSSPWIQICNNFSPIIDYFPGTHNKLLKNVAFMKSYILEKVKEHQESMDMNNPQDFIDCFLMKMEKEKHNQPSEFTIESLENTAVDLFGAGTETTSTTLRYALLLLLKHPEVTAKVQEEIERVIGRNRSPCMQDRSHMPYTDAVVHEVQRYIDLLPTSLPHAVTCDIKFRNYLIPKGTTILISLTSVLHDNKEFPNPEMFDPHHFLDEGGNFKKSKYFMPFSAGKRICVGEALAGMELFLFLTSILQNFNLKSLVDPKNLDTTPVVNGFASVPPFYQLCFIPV

| SMILES | Brain concentration 0.5 hours after administration (ng/g) ([1]; 0.5 hours) | Brain concentration 2 hours after administration (ng/g) ([1]; 2 hours) | IC50 (CYP 2C19) [µM] | IC50 (CYP 2C9) [µM] | IC50 (CYP 2D6) [µM] | IC50 (CYP 3A4; [2]) [µM] | IC50 (CYP 3A4; [3]) [µM] | concentration at 0.5 h ([1]; Sprague-Dawley (SD), rat, brain, 0.5 hours, read-out: Brain concentration 0.5 hours after administration) [ng/g] | concentration at 2 h ([1]; Sprague-Dawley (SD), rat, brain, 2 hours, read-out: Brain concentration 2 hours after administration) [ng/g] |
| --- | --- | --- | --- | --- | --- | --- | --- | --- | --- |
| C=CC(=O)N1CCN(c2nc(=O)n(-c3c(C)ccnc3C(C)C)c3nc(-c4c(O)cccc4F)c(F)cc23)[C@@H](C)C1 [AMG510] | Below detection limit | Below detection limit | > 10 | > 10 | > 10 | 5.07 | > 10 | – | – |
| C=C(F)C(=O)N1CCN(c2nc(OC[C@@H]3CCCN3C)nc3c2CCN(c2cccc4cccc(Cl)c24)C3)C[C@@H]1CC#N [MRTX849] | – | – | > 10 | 1.35 | 9.72 | 6.83 | > 10 | 8 | 69.8 |
